According to patent US9302999B2, “Substituted triazoles as herbicides” (E. I. DU PONT DE NEMOURS AND COMPANY, priority 2012, dated 2016):
Like-named read-outs stand apart in the source and are kept apart here.

Tests used:
Format in all cases: in vivo
[1] = test system: crabgrass, large (large crabgrass, Digitaria sanguinalis); assay: Test A pre-/postemergence: crabgrass, large; settings: Digitaria sanguinalis, 240 h; for pest or weed control at 125 g/ha: 125 g ai/ha; for pest or weed control at 500 g/ha: 500 g ai/ha
Procedure, shortened: (§1)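 Whole-plant greenhouse assay in loam/sand. Preemergence directed soil spray plus simultaneous postemergence spray (one- to two-leaf stage, 2–10 cm). Rated visually ~10 days later, 0 = no effect, 100 = complete control.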

[2] = test system: foxtail, giant (giant foxtail, Setaria faberii); assay: Test A pre-/postemergence: foxtail, giant; settings: Setaria faberi, 240 h; for pest or weed control at 125 g/ha: 125 g ai/ha; for pest or weed control at 500 g/ha: 500 g ai/ha
Procedure, shortened: as §1

[3] = test system: morningglory (Ipomoea spp.); assay: Test A pre-/postemergence: morningglory; settings: Ipomoea, 240 h; for pest or weed control at 125 g/ha: 125 g ai/ha; for pest or weed control at 500 g/ha: 500 g ai/ha
Procedure, shortened: as §1

kochia (Kochia scoparia) = assay: Test C pre-/postemergence: kochia
Procedure, shortened: (§2)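 Preemergence on seeds in loam/sand, postemergence on 2–18 cm (1–4-leaf) plants in peat-based medium; compounds in non-phytotoxic solvent with surfactant. After 13–15 days in greenhouse, visual rating versus controls, 0 (no effect) to 100 (complete control).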

[4] = test system: nutsedge, yellow (yellow nutsedge, Cyperus esculentus); assay: Test C pre-/postemergence: nutsedge, yellow
Procedure, shortened: as §2

[5] = test system: ragweed (common ragweed, Ambrosia elation); assay: Test C pre-/postemergence: ragweed; settings: Postemergence
Excerpt: Seeds of plant species selected from blackgrass (Alopecurus myosuroides), bromegrass, downy (downy bromegrass, Bromus tectorum), foxtail, green (green foxtail, Setaria viridis), ryegrass, Italian (Italian ryegrass, Lolium multiflorum), winter wheat (Triticum aestivum), wild oat (Avena fatua), galium (catchweed bedstraw, Galium aparine), bermudagrass (Cynodon dactylon), surinam grass (Brachiaria decumbens), cocklebur (common cocklebur, Xanthium strumarium), corn (Zea mays), large crabgrass (Digitaria sanguinalis), woolly cupgrass (Eriochloa villosa), foxtail, giant (giant foxtail, Setaria faberii), goosegrass (Eleusine indica), johnsongrass (Sorghum halepense), kochia (Kochia scoparia), lambsquarters (Chenopodium album), morningglory (Ipomoea coccinea), nightshade (eastern black nightshade, Solanum ptycanthum), nutsedge, yellow (yellow nutsedge, Cyperus esculentus), pigweed (Amaranthus retroflexus), ragweed (common ragweed, Ambrosia elation), soybean (Glycine max), common (oilseed) sunflower (Helianthus annuus), Russian thistle (Salsola kali) and velvetleaf (Abutilon theophrasti) were planted into a blend of loam soil and sand and treated preemergence with test chemicals formulated in a non-phytotoxic solvent mixture which included a surfactant.
At the same time, plants selected from these crop and weed species and also barley (winter barley, Hordeum vulgare), canarygrass (Phalaris minor), chickweed (common chickweed, Stellaria media) windgrass (Apera spica-venti) and deadnettle (henbit deadnettle, Lamium amplexicaule) were planted in pots containing Redi-Earth® planting medium (Scotts Company, 14111 Scottslawn Road, Marysville, Ohio 43041) comprising spaghnum peat moss, vermiculite, wetting agent and starter nutrients and treated with postemergence applications of test chemicals formulated in the same manner. Plants ranged in height from 2 to 18 cm (1- to 4-leaf stage) for postemergence treatments.
Treated plants and controls were maintained in a greenhouse for 13 to 15 days, after which time all species were compared to controls and visually evaluated. Plant response ratings, summarized in Table C, are based on a scale of 0 to 100 where 0 is no effect and 100 is complete control. A dash (-) response means no test result.

soybean (Glycine max) = assay: Test C pre-/postemergence: soybean
Procedure, shortened: as §2

[6] = test system: velvetleaf (Abutilon theophrasti); assay: Test C pre-/postemergence: velvetleaf
Procedure, shortened: as §2

[7] = post-emergence, Postemergence, 0 to 100 scale, 0 is no effect, 100 is complete control, read-out: Crabgrass, Large plant response rating
[8] = post-emergence, Postemergence, visual rating on 0 to 100 scale (0 no effect, 100 complete control), approximately ten days, read-out: Crabgrass, Large plant response rating
[9] = pre-emergence, Preemergence, 0 to 100 scale (0 no effect, 100 complete control), read-out: Plant response rating, Crabgrass, Large
[10] = pre-emergence, Preemergence, 0 to 100 scale, 0 is no effect, 100 is complete control, read-out: Plant response rating, Crabgrass, Large
[11] = post-emergence, Postemergence, 0 to 100 scale, 0 is no effect, 100 is complete control, read-out: Foxtail, Giant plant response rating
[12] = post-emergence, Postemergence, visual rating on 0 to 100 scale (0 no effect, 100 complete control), approximately ten days, read-out: Foxtail, Giant plant response rating
[13] = pre-emergence, Preemergence, 0 to 100 scale (0 no effect, 100 complete control), read-out: Plant response rating, Foxtail, Giant
[14] = pre-emergence, Preemergence, 0 to 100 scale, 0 is no effect, 100 is complete control, read-out: Plant response rating, Foxtail, Giant
[15] = post-emergence, Postemergence, 0 to 100 scale, 0 is no effect, 100 is complete control, read-out: Morningglory plant response rating
[16] = post-emergence, Postemergence, visual rating on 0 to 100 scale (0 no effect, 100 complete control), approximately ten days, read-out: Morningglory plant response rating
[17] = pre-emergence, Preemergence, 0 to 100 scale (0 no effect, 100 complete control), read-out: Plant response rating, Morningglory
[18] = pre-emergence, Preemergence, 0 to 100 scale, 0 is no effect, 100 is complete control, read-out: Plant response rating, Morningglory
[19] = Postemergence, 31 g ai/ha, scale 0 to 100 (0 no effect, 100 complete control)
[20] = Postemergence, 62 g ai/ha, scale 0 to 100 (0 no effect, 100 complete control)
[21] = Postemergence, 125 g ai/ha, scale 0 to 100, 0 no effect, 100 complete control
[22] = Postemergence, 250 g ai/ha, scale 0 to 100
[23] = Preemergence, 31 g ai/ha, scale of 0 to 100, 0 is no effect, 100 is complete control
[24] = Preemergence, 62 g ai/ha, scale of 0 to 100, 0 is no effect, 100 is complete control
[25] = Preemergence, 125 g ai/ha, scale 0 to 100, 0 no effect, 100 complete control
[26] = Preemergence, 250 g ai/ha, scale 0 to 100, 0 no effect, 100 complete control
[27] = 31 g ai/ha, scale 0 to 100 (0 no effect, 100 complete control)
[28] = 62 g ai/ha, scale 0 to 100 (0 no effect, 100 complete control)
[29] = 125 g ai/ha, scale 0 to 100, 0 no effect, 100 complete control
[30] = Postemergence, 16 g ai/ha, scale 0 to 100, 0 no effect, 100 complete control
[31] = Preemergence, 16 g ai/ha, scale 0 (no effect) to 100 (complete control)

SMILES: FC(F)(F)COc1nn(-c2ccc(C(F)(F)F)cc2)nc1Cc1ccnc(C(F)(F)F)c1 [Compound 14, 4-[[5-(2,2,2-trifluoroethoxy)-2-[4-(trifluoromethyl)phenyl]-2H-1,2,3-triazol-4-yl]methyl]-2-(trifluoromethyl)pyridine]
- pest or weed control at 125 g/ha [1, 7]: 80%
- pest or weed control at 500 g/ha [1, 8]: 90%
- pest or weed control at 125 g/ha [1, 9]: 90%
- pest or weed control at 500 g/ha [1, 10]: 100%
- pest or weed control at 125 g/ha [2, 11]: 80%
- pest or weed control at 500 g/ha [2, 12]: 90%
- pest or weed control at 125 g/ha [2, 13]: 100%
- pest or weed control at 500 g/ha [2, 14]: 100%
- pest or weed control at 125 g/ha [3, 15]: 80%
- pest or weed control at 500 g/ha [3, 16]: 100%
- pest or weed control at 125 g/ha [3, 17]: 60%
- pest or weed control at 500 g/ha [3, 18]: 80%
- Plant response rating, Kochia (kochia (Kochia scoparia); [19]): 90
- Plant response rating, Kochia (kochia (Kochia scoparia); [20]): 95
- Plant response rating, Kochia (kochia (Kochia scoparia); [21]): 95
- Plant response rating, Kochia (kochia (Kochia scoparia); [22]): 95
- Plant response rating, Kochia (kochia (Kochia scoparia); [23]): 0
- Plant response rating, Kochia (kochia (Kochia scoparia); [24]): 0
- Plant response rating, Kochia (kochia (Kochia scoparia); [25]): 75
- Plant response rating, Kochia (kochia (Kochia scoparia); [26]): 85
- Plant response rating, Nutsedge, Yellow [4, 19]: 0
- Plant response rating, Nutsedge, Yellow [4, 20]: 0
- Plant response rating, Nutsedge, Yellow [4, 21]: 0
- Plant response rating, Nutsedge, Yellow [4, 22]: 0
- Plant response rating, Nutsedge, Yellow [4, 23]: 0
- Plant response rating, Nutsedge, Yellow [4, 24]: 0
- Plant response rating, Nutsedge, Yellow [4, 25]: 0
- Plant response rating, Nutsedge, Yellow [4, 26]: 0
- Plant response rating, Ragweed [5, 27]: 55
- Plant response rating, Ragweed [5, 28]: 55
- Plant response rating, Ragweed [5, 29]: 60
- Plant response rating, Ragweed ([5]; 250 g ai/ha, scale 0 to 100): 80
- Plant response rating, Soybean (soybean (Glycine max); [19]): 25
- Plant response rating, Soybean (soybean (Glycine max); [20]): 25
- Plant response rating, Soybean (soybean (Glycine max); [21]): 30
- Plant response rating, Soybean (soybean (Glycine max); [22]): 35
- Plant response rating, Soybean (soybean (Glycine max); [23]): 0
- Plant response rating, Soybean (soybean (Glycine max); [24]): 0
- Plant response rating, Soybean (soybean (Glycine max); [25]): 0
- Plant response rating, Soybean (soybean (Glycine max); [26]): 0
- Plant response rating, Velvetleaf [6, 19]: 75
- Plant response rating, Velvetleaf [6, 20]: 80
- Plant response rating, Velvetleaf [6, 21]: 85
- Plant response rating, Velvetleaf [6, 22]: 90
- Plant response rating, Velvetleaf [6, 23]: 10
- Plant response rating, Velvetleaf [6, 24]: 10
- Plant response rating, Velvetleaf [6, 25]: 70
- Plant response rating, Velvetleaf [6, 26]: 75

SMILES: COc1nn(-c2ccc(C(F)(F)F)cc2)nc1Cc1ccnc(C(F)(F)F)c1 [Compound 15, 4-[[5-methoxy-2-[4-(trifluoromethyl)phenyl]-2H-1,2,3-triazol-4-yl]methyl]-2-(trifluoromethyl)pyridine]
- pest or weed control at 125 g/ha [1, 7]: 90%
- pest or weed control at 500 g/ha [1, 8]: 90%
- pest or weed control at 125 g/ha [1, 9]: 100%
- pest or weed control at 500 g/ha [1, 10]: 100%
- pest or weed control at 125 g/ha [2, 11]: 90%
- pest or weed control at 500 g/ha [2, 12]: 90%
- pest or weed control at 125 g/ha [2, 13]: 100%
- pest or weed control at 500 g/ha [2, 14]: 100%
- pest or weed control at 125 g/ha [3, 15]: 100%
- pest or weed control at 500 g/ha [3, 16]: 100%
- pest or weed control at 125 g/ha [3, 17]: 60%
- pest or weed control at 500 g/ha [3, 18]: 80%
- Plant response rating, Kochia (kochia (Kochia scoparia); [30]): 90
- Plant response rating, Kochia (kochia (Kochia scoparia); [19]): 95
- Plant response rating, Kochia (kochia (Kochia scoparia); [20]): 95
- Plant response rating, Kochia (kochia (Kochia scoparia); [21]): 95
- Plant response rating, Kochia (kochia (Kochia scoparia); [31]): 0
- Plant response rating, Kochia (kochia (Kochia scoparia); [23]): 70
- Plant response rating, Kochia (kochia (Kochia scoparia); [24]): 70
- Plant response rating, Kochia (kochia (Kochia scoparia); [25]): 85
- Plant response rating, Nutsedge, Yellow [4, 30]: 0
- Plant response rating, Nutsedge, Yellow [4, 19]: 0
- Plant response rating, Nutsedge, Yellow [4, 20]: 0
- Plant response rating, Nutsedge, Yellow [4, 21]: 0
- Plant response rating, Nutsedge, Yellow [4, 31]: 0
- Plant response rating, Nutsedge, Yellow [4, 23]: 0
- Plant response rating, Nutsedge, Yellow [4, 24]: 0
- Plant response rating, Nutsedge, Yellow [4, 25]: 10
- Plant response rating, Ragweed ([5]; 16 g ai/ha, scale 0 to 100, 0 no effect, 100 complete control): 45
- Plant response rating, Ragweed [5, 27]: 60
- Plant response rating, Ragweed [5, 28]: 60
- Plant response rating, Ragweed [5, 29]: 70
- Plant response rating, Soybean (soybean (Glycine max); [30]): 10
- Plant response rating, Soybean (soybean (Glycine max); [19]): 10
- Plant response rating, Soybean (soybean (Glycine max); [20]): 35
- Plant response rating, Soybean (soybean (Glycine max); [21]): 45
- Plant response rating, Soybean (soybean (Glycine max); [31]): 0
- Plant response rating, Soybean (soybean (Glycine max); [23]): 0
- Plant response rating, Soybean (soybean (Glycine max); [24]): 0
- Plant response rating, Soybean (soybean (Glycine max); [25]): 25
- Plant response rating, Velvetleaf [6, 30]: 60
- Plant response rating, Velvetleaf [6, 19]: 60
- Plant response rating, Velvetleaf [6, 20]: 60
- Plant response rating, Velvetleaf [6, 21]: 90
- Plant response rating, Velvetleaf [6, 31]: 0
- Plant response rating, Velvetleaf [6, 23]: 0
- Plant response rating, Velvetleaf [6, 24]: 20
- Plant response rating, Velvetleaf [6, 25]: 80
